Patent US9102712B2, “Dendrimeric peptides, pharmaceutical compositions and methods of using the same” (New York University, priority 2010, dated 2015)
Converted amounts (≈) assume the structure as drawn. Square brackets hold non-standard residues; d marks the D form. Side chains are listed from the residue outwards. Peptide text beside a SMILES is read from it. * marks the point of attachment. ξ: configuration not given here. X1 = CC(C)(C)c1cc(C(C)(C)C)c2[nH]c(C(C)(C)C)c(CC(NC(=O)[C@@H](N)CCCNC(=N)N)C(=O)*)c2c1; Trp(2,5,7-tBu3) = CC(C)(C)c1cc(C(C)(C)C)c2[nH]c(C(C)(C)C)c(C[C@H](N)C(=O)O)c2c1; ξTrp(2,5,7-tBu3) = CC(C)(C)c1cc(C(C)(C)C)c2[nH]c(C(C)(C)C)c(CC(N)C(=O)O)c2c1; βAla = NCCC(=O)O

Experiments:
E. coli (D31) = assay: Antibacterial broth microdilution, E. coli; assay type: cell-based; conditions: for IC50 E. Coli D31 / E. Coli IC50: 50% inhibition of growth, MH broth, 18 hrs at 37° C.; for IC50 E. Coli D31: Table 3; for E. Coli IC50: Table 1
Protocol: (§1) The antibacterial activity of each dendrimer peptide was tested by following standard broth microdilution protocols recommended by the National Committee for Clinical Laboratory Standard (NCCLS 2004). Antibacterial testing was carried out on gram-negative bacteria E. coli (D31) and gram-positive bacteria S. aureus in liquid media Mueller Hinton (MH) Brooth according to literature procedures. Dendrimers were dissolved in PBS buffer (high salt, 150 mM NaCl; low salt, 75 mM NaCl), pH 7.4 to make series of stocks of 2-fold dilution. Cultures were grown overnight on Mueller Hinton (MH) agar plates, and 3 to 5 uniform colonies of each organism were transferred with an inoculating loop to test tubes containing MH broth, and incubated at 37° C. overnight, then diluted until the turbidity matched that of the 0.5 McFarland standard (approximately 1.5×10^8 cells/mL). The resulting solutions were further diluted to give approximately 2×10^4-2×10^5 CFU/mL. 100 μL of the bacterial inoculums were incubated in 96-well plates with varying volumes of stock solution and PBS buffer to bring the total volume to 200 μL. Solutions containing the same volumes of PBS buffer and MH Broth, with and without bacteria were used as controls. After these plates were incubated with shaking for 18 hrs at 37° C. to ensure the cultures had reached log phase growth, the absorbance readings were recorded at a wavelength of 600 nm using a Absorbance Microplate Reader BIO-TEK ELX800. The 18-hour absorbance data were used to calculate the percent inhibition for each test condition. All assays were carried out in triplicate. The experimental data were fitted to sigmoidal dose-response curves using GraphPad Prism (GraphPad Software Inc., San Diego, Calif., USA).

MRSA = assay type: cell-based, Methicillin-resistant Staphylococcus aureus; conditions: 18 h
Protocol: as §1

B. Subtilis = assay type: cell-based; conditions: 18 h
fresh sheep RBC = assay type: cell-based; conditions: red cells of sheep, 1 h
Protocol: Hemolytic activity of dendrimeric compounds were assessed on fresh sheep RBC (Fitzgerald, Inc., MA). Dendrimer concentrations corresponding to 50% hemolysis were used as hemolytic dose (HD50) determined from dose-response curve. The fresh sheep RBC was washed with PBS buffer (thrice) and aliquots of cell suspension were mixed in eppendorf tubes with varying volumes of stocks and buffer for a total volume of 400 μL. These tubes were incubated at 37° C. for 1 hr, and then spun down at 3,000 rpm for 5 mins. The resulting supernatant was trasferred to a 96-well plate and the absorbances at 540 nm were measured in an Absorbance Microplate Reader BIO-TEK ELX800. Zero hemolysis and 100% hemolysis controls were obtained by incubating the cells with buffer and 1% Triton X-100, respectively. Hemolytic index (HI) was defined as HI=HD50/IC50 (Table 1 and 3).

S. aureus = assay type: cell-based; conditions: for S. Aureus IC50: 18 h
Protocol: as §1

Row | SMILES | IC50 E. Coli D31 (E. coli (D31)) | IC50 MRSA (MRSA) | IC50 B. Subtilis (B. Subtilis) | HD50 Hemolysis (fresh sheep RBC) | E. Coli IC50 (E. coli (D31)) | S. Aureus IC50 (S. aureus) | Hemolysis HD50 (fresh sheep RBC) | E. Coli HI (hemolytic index) (E. coli (D31); HI=HD50/IC50, E. coli) | S. Aureus HI (hemolytic index) (S. aureus; HI=HD50/IC50, S. aureus)
1 | N=C(N)NCCC[C@H](NC(=O)[C@H](Cc1c[nH]c2ccccc12)NC(=O)[C@@H](N)CCCNC(=N)N)C(=O)NCCCC[C@H](NC(=O)[C@H](CCCCNC(=O)[C@H](CCCNC(=N)N)NC(=O)[C@H](Cc1c[nH]c2ccccc12)NC(=O)[C@@H](N)CCCNC(=N)N)NC(=O)[C@H](CCCNC(=N)N)NC(=O)[C@H](Cc1c[nH]c2ccccc12)NC(=O)[C@@H](N)CCCNC(=N)N)C(=O)NCCC(N)=O [Dendrimer 3D-06, reference compound] (H-RWRK([Arg-Trp-Arg])K([Arg-Trp-Arg])[βAla]-NH2) | 1.8 µg/mL (≈ 0.978 µM) | 17.3 µg/mL (≈ 9.4 µM) | 1.9 µg/mL (≈ 1.03 µM) | 2336 µg/mL | – | – | – | – | –
2 | N=C(N)NCCC[C@H](NC(=O)[C@@H](N)Cc1c[nH]c2ccccc12)C(=O)NCCCC[C@H](NC(=O)[C@H](CCCNC(=N)N)NC(=O)[C@@H](N)Cc1c[nH]c2ccccc12)C(=O)NCCCC[C@H](NC(=O)[C@H](CCCCNC(=O)[C@H](CCCNC(=N)N)NC(=O)[C@@H](N)Cc1c[nH]c2ccccc12)NC(=O)[C@H](CCCNC(=N)N)NC(=O)[C@@H](N)Cc1c[nH]c2ccccc12)C(=O)NCCC(N)=O [Dendrimer 4D-04, reference compound] | 4.5 µg/mL (≈ 2.44 µM) | 14.6 µg/mL (≈ 7.93 µM) | 4.2 µg/mL (≈ 2.28 µM) | 1563 µg/mL | – | – | – | – | –
3 | N=C(N)NCCC[C@H](N)C(=O)N[C@@H](Cc1c[nH]c2ccccc12)C(=O)NCCN(CCNC(=O)[C@H](Cc1c[nH]c2ccccc12)NC(=O)[C@@H](N)CCCNC(=N)N)CCNC(=O)[C@H](Cc1c[nH]c2ccccc12)NC(=O)[C@@H](N)CCCNC(=N)N [TAEA-(WR)3, TAEA-(WR—NH2)3] | – | – | – | – | 2.07 ± 0.22 µg/mL | 0.97 ± 0.02 µg/mL | 3073 µg/mL | – | –
4 | NCCCC[C@H](N)C(=O)N[C@@H](Cc1c[nH]c2ccccc12)C(=O)NCCN(CCNC(=O)[C@H](Cc1c[nH]c2ccccc12)NC(=O)[C@@H](N)CCCCN)CCNC(=O)[C@H](Cc1c[nH]c2ccccc12)NC(=O)[C@@H](N)CCCCN [TAEA-(WK)3, TAEA-(WK—NH2)3] | – | – | – | – | 6.87 ± 0.01 µg/mL | 4.12 ± 0.58 µg/mL | 5423 µg/mL | 789 | 1316
5 | N=C(N)NCCC[C@H](NC(=O)[C@H](Cc1c[nH]c2ccccc12)NC(=O)[C@@H](N)CCCNC(=N)N)C(=O)NCCCC[C@H](NC(=O)[C@H](CCCNC(=N)N)NC(=O)[C@H](Cc1c[nH]c2ccccc12)NC(=O)[C@@H](N)CCCNC(=N)N)C(=O)NCCC(N)=O [Dendrimer 2D-04, reference compound] (H-RWRK([Arg-Trp-Arg])[βAla]-NH2) | 6.8 µg/mL (≈ 5.6 µM) | 56.6 µg/mL (≈ 46.6 µM) | 6.1 µg/mL (≈ 5.03 µM) | 3428 µg/mL | – | – | – | – | –
6 | CC(C)(C)c1cc(C(C)(C)C)c2[nH]c(C(C)(C)C)c(C[C@H](N)C(=O)N[C@@H](CCCNC(=N)N)C(=O)NCCCC[C@H](NC(=O)[C@H](CCCCNC(=O)[C@H](CCCNC(=N)N)NC(=O)[C@@H](N)Cc3c[nH]c4ccccc34)NC(=O)[C@H](CCCNC(=N)N)NC(=O)[C@@H](N)Cc3c[nH]c4ccccc34)C(=O)NCCC(N)=O)c2c1 [Dendrimer 3D-13] (H-WRK([Arg-Trp])K([Arg-Trp(2,5,7-tBu3)])[βAla]-NH2) | 1.0 µg/mL (≈ 0.649 µM) | 1.7 µg/mL (≈ 1.1 µM) | 1.9 µg/mL (≈ 1.23 µM) | 270 µg/mL | – | – | – | – | –
7 | N=C(N)NCCC[C@H](N)C(=O)N[C@@H](Cc1c[nH]c2ccccc12)C(=O)NCCCN(CCCCN(CCCNC(=O)[C@H](Cc1c[nH]c2ccccc12)NC(=O)[C@@H](N)CCCNC(=N)N)CCCNC(=O)[C@H](Cc1c[nH]c2ccccc12)NC(=O)[C@@H](N)CCCNC(=N)N)CCCNC(=O)[C@H](Cc1c[nH]c2ccccc12)NC(=O)[C@@H](N)CCCNC(=N)N [POPAM-(WR)4, POPAM-(WR—NH2)3] | – | – | – | – | 0.57 ± 0.12 µg/mL | 0.37 ± 0.13 µg/mL | 291 µg/mL | – | –
8 | N=C(N)NCCC[C@H](NC(=O)[C@@H](N)Cc1c[nH]c2ccccc12)C(=O)NCCCC[C@H](NC(=O)[C@H](CCCCNC(=O)[C@H](CCCNC(=N)N)NC(=O)[C@@H](N)Cc1c[nH]c2ccccc12)NC(=O)[C@H](CCCNC(=N)N)NC(=O)[C@@H](N)Cc1c[nH]c2ccccc12)C(=O)NCCC(N)=O [Dendrimer 3D-03, reference compound] (H-WRK([Arg-Trp])K([Arg-Trp])[βAla]-NH2) | 12.1 µg/mL (≈ 8.82 µM) | >100 µg/mL | 14.3 µg/mL (≈ 10.4 µM) | 3197 µg/mL | – | – | – | – | –
9 | CC(C)(C)c1cc(C(C)(C)C)c2[nH]c(C(C)(C)C)c(CC(NC(=O)[C@@H](N)CCCNC(=N)N)C(=O)N[C@@H](CCCNC(=N)N)C(=O)NCCCC[C@H](NC(=O)[C@H](CCCNC(=N)N)NC(=O)C(Cc3c(C(C)(C)C)[nH]c4c(C(C)(C)C)cc(C(C)(C)C)cc34)NC(=O)[C@@H](N)CCCNC(=N)N)C(=O)NCCC(N)=O)c2c1 (some centres unmarked) [Dendrimer 2D-24] | 0.5 µg/mL (≈ 0.323 µM) | 0.2 µg/mL (≈ 0.129 µM) | 0.8 µg/mL (≈ 0.516 µM) | 48 µg/mL | – | – | – | – | –
10 | CC(C)(C)c1cc(C(C)(C)C)c2[nH]c(C(C)(C)C)c(CC(NC(=O)[C@@H](N)CCCNC(=N)N)C(=O)N[C@@H](CCCNC(=N)N)C(=O)NCCCC[C@H](NC(=O)[C@H](CCCCNC(=O)[C@H](CCCNC(=N)N)NC(=O)[C@H](Cc3c[nH]c4ccccc34)NC(=O)[C@@H](N)CCCNC(=N)N)NC(=O)[C@H](CCCNC(=N)N)NC(=O)[C@H](Cc3c[nH]c4ccccc34)NC(=O)[C@@H](N)CCCNC(=N)N)C(=O)NCCC(N)=O)c2c1 (stereo partly drawn) [Dendrimer 3D-16] (H-RWRK([Arg-Trp-Arg])K([Arg-X1])[βAla]-NH2) | 0.4 µg/mL (≈ 0.199 µM) | 5.2 µg/mL (≈ 2.59 µM) | 0.9 µg/mL (≈ 0.448 µM) | 201 µg/mL | – | – | – | – | –
11 | CC(C)(C)c1cc(C(C)(C)C)c2[nH]c(C(C)(C)C)c(C[C@H](N)C(=O)N[C@@H](CCCNC(=N)N)C(=O)NCCCC[C@H](NC(=O)[C@H](CCCNC(=N)N)NC(=O)[C@@H](N)Cc3c(C(C)(C)C)[nH]c4c(C(C)(C)C)cc(C(C)(C)C)cc34)C(=O)N[C@@H](CCCCNC(=O)[C@H](CCCNC(=N)N)NC(=O)[C@@H](N)Cc3c[nH]c4ccccc34)C(=O)NCCC(N)=O)c2c1 [Dendrimer 3D-23] (H-[Trp(2,5,7-tBu3)]RK([Arg-Trp(2,5,7-tBu3)])K([Arg-Trp])[βAla]-NH2) | 2.4 µg/mL (≈ 1.4 µM) | 0.7 µg/mL (≈ 0.41 µM) | 2.1 µg/mL (≈ 1.23 µM) | 99 µg/mL | – | – | – | – | –
12 | CC(C)(C)c1cc(C(C)(C)C)c2[nH]c(C(C)(C)C)c(CC(NC(=O)[C@@H](N)CCCNC(=N)N)C(=O)N[C@@H](CCCNC(=N)N)C(=O)NCCCC[C@H](NC(=O)[C@H](CCCNC(=N)N)NC(=O)C(Cc3c(C(C)(C)C)[nH]c4c(C(C)(C)C)cc(C(C)(C)C)cc34)NC(=O)[C@@H](N)CCCNC(=N)N)C(=O)N[C@@H](CCCCNC(=O)[C@H](CCCNC(=N)N)NC(=O)[C@H](Cc3c[nH]c4ccccc34)NC(=O)[C@@H](N)CCCNC(=N)N)C(=O)NCCC(N)=O)c2c1 (stereo partly drawn) [Dendrimer 3D-26] (H-R[ξTrp(2,5,7-tBu3)]RK([Arg-X1])K([Arg-Trp-Arg])[βAla]-NH2) | 1.4 µg/mL (≈ 0.643 µM) | 0.5 µg/mL (≈ 0.23 µM) | 1.4 µg/mL (≈ 0.643 µM) | 33 µg/mL | – | – | – | – | –
